Assay [1] deals with HAMP gene expression in Huh7 hepatocytes. Description: HAMP gene expression (RT-qPCR), Huh7. The settings on record: IL-6/BMP-9 induced Huh7, 18 hrs; ND 15 μM, CMK 25 μM. Format: cell-based, human. (Real-time PCR tracks product formation cycle by cycle.)
Description: Cells were seeded at a density of 1.5×10^6 per T25 flask in 5 mL culture medium and allowed to reach 50% confluency. At time 0, the cells received fresh media and were then simultaneously treated with either nelfinavir or darunavir alone, or nelfinavir and darunavir at varying concentrations (2.5/2.5 μM, 5/5 μM and 7.5/7.5 μM) and induced with IL-6 and BMP-9 (10 ng/mL each) for 18 hours. […] Control groups not being induced with cytokines, are designated as ‘Healthy’.
RNA was isolated by washing tissue culture in 1×PBS, before applying QIAzol lysis reagent (Cat #79306). RNA was then purified on RNeasy mini kit columns (Cat #74104) from Qiagen. All samples were treated with Qiagen DNase (Cat #79254). Two micrograms of RNA were used for reverse transcription and subsequent SYBR® Green ROX real time PCR for the genes of interest. Reverse transcription kits (Cat #330401) and SYBR Green real-time PCR master mixes (Cat #330523) were from Qiagen (Louisville, KY). […]
Real time quantitative PCR was performed on an Applied Biosciences StepOne plus instrument and analyzed with StepOne software v2.3. The relative amounts of transcripts from each gene were normalized to reference gene GAPDH and calculated as follows: ΔΔCT=the average ΔCT of sample B−the average ΔCT of sample B, and their fold difference=2−^ΔΔCT.
The subject of assay [2] is hepcidin-25 in Huh7 cell media. Nature of the assay: Hepcidin-25 quantification in Huh7 cell media by mass spectrometry. The format is cell-based, human. The settings on record: IL-6/BMP-9 10 ng/mL each, 18 hrs; ND 15 μM (7.5 μM each), CMK 25 μM.
Description: Detection of Hepcidin-25 isoform was completed using an HPLC-MS/MS method with an Eksigent NanoLC HPLC with a Thermo Scientific C-18 reverse-phase column coupled via Thermo Scientific Nanospray ESI soft ionization source to a Thermo Scientific LTQ/Orbitrap XL mass spectrometer (MS). Samples were prepared for MS using an in-house developed enrichment and purification protocol. […]
The mass spectrometer was tuned and calibrated to a pure human recombinant hepcidin-25 solution. […] Peaks with isotopic envelopes corresponding to [M+5H+] and [M+6H+], 651.8 m/z and 543.3 m/z for 2-iodoacetamide, 818.5 m/z and 682.2 m/z for 2-iodo-N-(phenylethyl)-acetamide respectively, were detected in all samples and were not observed in the protocol blank. […] Quantification was completed using in-house developed ion chromatogram extractor software that allowed positive isolation of unfragmented peaks by m/z and chromatographic elution windows for total spectral ion count summation. Samples were intensity normalized to hepcidin-25 detected in healthy culture media for each dataset.
Sample preparation consisted of three phases: 1) ultra-filtration to remove large abundant proteins and media debris; 2) earboxamidomethylation of cysteine residues; and 3) 2-phase extraction of lipid substituents and subsequent concentration by speed-vac. […] Data was recorded at a resolution of 100,000 over the course of a two-hour method. Detected intensities were totaled using in-house developed ion-chromatogram extractor software. […]
In assay [3] the test system is prohepcidin in Huh7 cell media. Nature of the assay: Prohepcidin secretion into Huh7 cell media. The format is cell-based, human. How it is done: (§1) Cells were seeded at a density of 1.5×10^6 per T25 flask in 5 mL culture medium and allowed to reach 50% confluency. At time 0, the cells received fresh media and were then simultaneously treated with either nelfinavir or darunavir alone, or nelfinavir and darunavir at varying concentrations (2.5/2.5 μM, 5/5 μM and 7.5/7.5 μM) and induced with IL-6 and BMP-9 (10 ng/mL each) for 18 hours. After 18 hours, 2 mL of media were collected, aliquoted and flash frozen for mass spectrometry (MS) analysis. Control groups not being induced with cytokines, are designated as ‘Healthy’.

The target in another assay is T1, Recombinant human furin (Homo sapiens, UniProt P09958).
T1 construct: purchased New England BioLabs (Ipswich, MA)
Description: In vitro fluorogenic furin activity assay. The format is biochemical. Particulars: fluorogenic substrate BOC-Arg-Val-Arg-Arg-AMC, FIG. 9 / FIG. 22. How it is done: Recombinant human furin was purchased from New England BioLabs (Ipswich, MA). Fluorogenic furin convertase substrate BOC-Arg-Val-Arg-Arg-AMC (AMC=7-Amino-4-methylcoumarin) from Enzo Life Sciences (Farmingdale, NY) and HIV aspartyl protease inhibitors (Sigma) were dissolved in DMSO. Protease inhibitory′ drugs were prepared at a. concentration of 10 mg/mL and stored at room temperature. Furin Inhibitor II chloromethylketone was purchased from EMD Millipore (Darmstadt, Germany).
The assay was performed at pH 7.5 in buffer 50 mM HEPES, 1 mM CaCl2, 1 mM β-mercaptoethanol, 0.2 mg/mL BSA. In a total volume of 100 μL, the final concentration per well of substrate enzyme was 10 μM and 1 U/well respectively. All assays were performed at 37° C. in a 96-well fluorometer (BioTek Synergy H4 Hybrid reader) with an excitation wavelength of 345 nm and an emission wavelength of 420 nm.
Inhibitory small molecules were incubated with enzyme for 1 hour at 37° C. prior to addition of substrate to initiate the reaction. All assays were performed in triplicate. Inhibition constants were calculated based on methods previously described (Lineweaver, H. & Burk, D. The Determination of Enzyme Dissociation Constants. J. Am. Chem. Soc. 56, 658-666 (1934)). […]
The molecular docking studies predicted that PIs bind to the catalytic site of furin as well as to a putative allosteric site on furin (FIGS. 7A and 7B). A fluorescence assay was used to monitor furin activity. Furin has substrate specificity for the multi-basic consensus amino-acid sequence of Arg-X-Lys/Arg-Arg (RXRR) at the cleavage site, where X represents a neutral, polar amino acid. Peptide substrates including the furin cleavage sequence having an attached fluorescent tag were used. A fluorescence tag is quenched when it is attached to the peptide, but when furin cleaves the peptide the fluorophore is released and is able to fluoresce. The inhibitory effect of the PIs in this assay can be characterized through a positive control, in which furin actively cleaves substrate without the presence of an inhibitor.

Assay [4] has as its system ferroportin in HepG2 cells. Description: Ferroportin Western blot, HepG2. Particulars: HepG2, IL-6/BMP-9 10 ng/mL each; ND 15 μM, CMK 25 μM. The format is cell-based, human. How it is done: as §1
After treatments, cultured cells were washed with ice-cold PBS and lysed by adding ice-cold RIP A buffer containing 50 mM Tris-HCl (pH 8), 150 mM NaCl, 1% Triton X-100, 0.5% sodium deoxycholate, 0.1% SDS, 5 mM EDTA and IX protease/phosphatase cocktail inhibitor (Thermo Fisher Scientific, Waltham, MA), Cells were scraped off the flask and were further disrupted by passing the solution through a 21 gauge needle. The extracts were then transferred to a microfuge tube and centrifuged for 20 min at 12000 rpm. Protein concentration was determined with a Lowry assay and equal amounts of the resulting protein (30 μg) were separated by 8% SDS-PAGE and then transferred to a nitrocellulose membrane (Bio-Rad). […]
For orientation: In western blotting, separated proteins are transferred to a membrane and probed.

Structures are written as SMILES. Residues, ends and D or L forms follow the SMILES beside them.

T1 sequence (P09958 108-794): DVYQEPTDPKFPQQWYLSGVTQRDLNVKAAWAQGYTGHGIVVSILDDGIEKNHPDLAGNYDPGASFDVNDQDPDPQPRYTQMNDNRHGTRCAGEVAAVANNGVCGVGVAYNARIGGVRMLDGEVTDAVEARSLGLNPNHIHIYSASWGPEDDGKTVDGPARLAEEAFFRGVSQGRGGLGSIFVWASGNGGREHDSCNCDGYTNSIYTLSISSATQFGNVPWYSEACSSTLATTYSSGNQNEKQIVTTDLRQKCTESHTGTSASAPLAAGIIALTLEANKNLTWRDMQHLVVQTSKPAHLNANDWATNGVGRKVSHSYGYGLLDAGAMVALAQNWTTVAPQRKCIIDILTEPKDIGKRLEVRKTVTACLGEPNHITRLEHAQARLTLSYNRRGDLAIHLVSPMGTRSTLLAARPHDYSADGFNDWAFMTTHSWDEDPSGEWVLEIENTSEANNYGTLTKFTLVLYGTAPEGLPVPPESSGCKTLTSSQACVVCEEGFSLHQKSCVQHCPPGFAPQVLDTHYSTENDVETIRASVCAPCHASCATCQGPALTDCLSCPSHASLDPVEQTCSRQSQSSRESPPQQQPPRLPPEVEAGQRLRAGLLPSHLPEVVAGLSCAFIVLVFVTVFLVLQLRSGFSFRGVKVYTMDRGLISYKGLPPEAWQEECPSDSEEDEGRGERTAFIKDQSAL

Regarding `CCCCCCCCCC(=O)N[C@@H](CCCN=C(N)N)C(=O)N[C@H](C(=O)N[C@@H](CCCCN)C(=O)N[C@@H](CCCN=C(N)N)C(=O)CCl)C(C)C` [Dec-RVKR-CMK] (HELM PEPTIDE1{[CCCCCCCCCC(=O)[*:2]].R.V.K.R.[ClC[*:1]]}$$$$V2.0), the HAMP gene expression result in assay [1] is given as “this phenomenon was not observed”. Also, in assay [2], the “hepcidin-25 in media of cytokine-induced cells” value is “statistically significant drop in mature hepcidin-25 is not observed”. Further, the “prohepcidin in media of cytokine-induced cells (in words)” value in assay [3] (IL-6/BMP-9 10 ng/mL each, 18 hr, ND 7.5 μM each, CMK 25 μM) is “significantly raised”. The “secreted prohepcidin concentration, healthy cell groups” value in assay [3] (no cytokine induction) is listed as “No significant difference”. For the same compound, the “inhibition of furin activity in the drug screen” value on Recombinant human furin is listed as “full inhibition of furin”. In assay [4], the “increase of ferroportin expression compared to IL-6/BMP-9 control” value is reported as 109%.

The values above are taken from patent US12208107B2, “Method and compositions for the treatment of anemia through the inhibition of furin” (Brigham Young University, priority 2016, dated 2025).
